Data as given in article PMC4002244, “ACE2 deficiency increases NADPH‐mediated oxidative stress in the kidney” (Physiological Reports, 2014).

How the values were obtained:
[1] = Ex vivo degradation of exogenous Ang II in kidney cortex lysates; format: in vitro ADME, mouse; conditions: 6 μg protein, Ang II 10^-9 mol/L, PBS pH 7.4 with 5 μmol/L ZnCl2, 37°C, ELISA
Protocol: (§1) Kidney cortex lysates (from ACE2 KO and WT mice) corresponding to 6 μg of total protein were individually incubated with 10^−9mol/L angiotensin II (Sigma‐Aldrich, St. Louis, MO) by constant shaking for up to 24 h at 37°C in PBS pH 7.4 containing 5 μmol/L ZnCl2. The incubation was performed with or without addition of the specific ACE2 inhibitor, MLN‐4760 (10^−6mol/L). Following the incubation, samples were diluted 1/5 in EDTA‐containing buffer (0.1 mol/L phosphate buffer, pH 7.4 containing 0.15 mol/L NaCl, 1 mmol/L EDTA, 0.1% BSA) and immediately frozen. The quantity of Ang II in the diluted samples was measured using enzyme‐linked immunosorbent assay kits (SPIBio, Cayman Chemical). Angiotensin quantity in each sample was expressed as a percentage ratio of the Ang remaining after a given incubation time to the initial Ang load (100%).

[2] = biological target: T1, ACE2 (Mus musculus, UniProt Q8R0I0); assay: Ex vivo Ang II degradation by kidney cortex lysates with ACE2 inhibitor; format: biochemical; conditions: WT lysates (6 μg protein, n = 5), MLN-4760 10^-6 mol/L, Ang II 10^-9 mol/L, PBS pH 7.4 with 5 μmol/L ZnCl2, 37°C, up to 24 h, Ang II by ELISA; P < 0.05 vs. WT without MLN-4760; similar to ACE2KO
T1 construct: from tissue; host or cells: kidney cortex of wild-type C57BL/6 mice (littermates of the ACE2KO mice)
T1 sequence (Q8R0I0 18-805): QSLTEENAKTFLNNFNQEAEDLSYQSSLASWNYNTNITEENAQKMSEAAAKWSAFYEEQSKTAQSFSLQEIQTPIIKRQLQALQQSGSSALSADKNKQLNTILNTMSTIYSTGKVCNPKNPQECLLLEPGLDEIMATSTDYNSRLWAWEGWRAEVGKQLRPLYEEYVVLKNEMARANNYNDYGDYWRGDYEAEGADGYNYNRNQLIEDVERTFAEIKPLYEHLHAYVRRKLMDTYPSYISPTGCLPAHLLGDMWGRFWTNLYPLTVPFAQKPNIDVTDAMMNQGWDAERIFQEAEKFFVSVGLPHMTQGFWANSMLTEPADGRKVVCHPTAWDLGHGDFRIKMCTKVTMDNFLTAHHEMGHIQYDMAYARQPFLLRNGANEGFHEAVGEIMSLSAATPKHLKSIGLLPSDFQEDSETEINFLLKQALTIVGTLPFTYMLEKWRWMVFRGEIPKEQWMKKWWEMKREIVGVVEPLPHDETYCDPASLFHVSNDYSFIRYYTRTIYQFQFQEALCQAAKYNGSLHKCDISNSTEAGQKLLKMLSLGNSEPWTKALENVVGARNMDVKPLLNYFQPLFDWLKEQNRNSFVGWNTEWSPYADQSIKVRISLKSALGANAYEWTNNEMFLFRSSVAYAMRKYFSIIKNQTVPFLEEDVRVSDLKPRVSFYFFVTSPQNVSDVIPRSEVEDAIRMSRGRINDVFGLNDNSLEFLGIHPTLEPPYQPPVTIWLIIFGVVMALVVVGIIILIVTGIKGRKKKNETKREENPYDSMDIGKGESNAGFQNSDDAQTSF
Protocol: as §1

[3] = tested on: kidney cortex NADPH oxidase activity; assay: Kidney cortex NADPH oxidase activity (lucigenin chemiluminescence) in ACE2KO mice after angiotensin receptor blockade; format: in vivo, mouse; conditions: for Kidney cortex NADPH oxidase activity, percent of WT controls: male ACE2KO C57BL/6 mice, 2 weeks
Protocol: NADPH oxidase activity in kidney cortex was measured using lucigenin (5 μmol/L) and NADPH (100 μmol/L) as previously described (Block et al. 2007). Light emission was recorded every 1 min over a 10‐min period at room temperature in a 20/20^n luminometer (Turner Biosystems, Sunnyvale, CA). Superoxide anion production was expressed as relative chemiluminescence (light) units (RLU)/μg protein. There was no measurable activity in the absence of NADPH. Protein content was measured using the BCA protein assay reagent (Pierce, Rockford, IL).
ACE2KO and control mice at the age of 20–30 weeks were treated with losartan (Triangle Compounding Pharmacy, Cary, NC) or placebo for 2 weeks. Losartan was administered to ACE2KO at two doses: 10 mg/kg/day (n = 4) and 30 mg/kg/day (n = 5) in drinking water in two separate experiments. Another group of ACE2KO (n = 6) and WT controls (n = 5 and n = 10) were given vehicle drug, with similar taste and consistency. Water bottles were weighed daily to document accurate drug consumption. At the end of 2 weeks of treatment with losartan, we proceeded to measure markers of oxidative stress as described above.
A separate group of male ACE2 knockout mice at 35 weeks of age underwent either sham operation (n = 8) or osmotic minipump (Alzet 1002) implantation to infuse the AT2 receptor blocker, PD123319 (2 mg/kg/day, n = 8) for 14 days. Pumps were implanted subcutaneously on the back between the shoulder blades and hips while animals were anesthetized by inhalation of isoflurane anesthetic. At the end of 2 weeks of treatment with PD123319, we proceeded to measure markers of oxidative stress as described above.

CC[C@H](C)[C@H](NC(=O)[C@H](Cc1ccc(O)cc1)NC(=O)[C@@H](NC(=O)[C@H](CCCNC(=N)N)NC(=O)[C@@H](N)CC(=O)O)C(C)C)C(=O)N[C@@H](Cc1cnc[nH]1)C(=O)N1CCC[C@H]1C(=O)N[C@@H](Cc1ccccc1)C(=O)O [Ang II, angiotensin II]
Ang II degradation by WT versus ACE2KO kidney cortex lysates (in words) ([1]; 6 and 24 h of incubation, n = 5 per group, P < 0.05): kidney lysates from WT mice degrade significantly more Ang II than the lysates obtained from ACE2KO
metabolised ([1]; mouse, kidney cortex lysates (ACE2 KO, with MLN-4760 (ACE2 inhibitor, 10^-6 mol/L) in the WT lysates), lysates of ACE2 KO or WT + MLN-4760 (10^-6 mol/L), constant shaking, up to 24 h, n = 5, read-out: Proportion of Ang II degraded in kidney cortex lysates despite the lack of ACE2): ~50%

CC(C)C[C@H](N[C@@H](Cc1cncn1Cc1cc(Cl)cc(Cl)c1)C(=O)O)C(=O)O [MLN-4760]
Effect of co-incubation on Ang II degradation rate by WT kidney cortex lysates [2]: significant decrease in Ang II degradation rate

Cc1cc(Cn2cnc3c2C[C@@H](C(=O)O)N(C(=O)C(c2ccccc2)c2ccccc2)C3)ccc1N(C)C [PD123319]
Kidney NADPH oxidase activity, percent of sham-operated ACE2KO mice ([3]; male ACE2KO mice, 35 weeks old, PD123319 2 mg/kg/day subcutaneous osmotic minipump, 14 days, n = 8, sham-operated ACE2KO 100 ± 21%, P = 0.541, mean ± SEM, SEM): 83 ± 17%

CCCCc1nc(Cl)c(CO)n1Cc1ccc(-c2ccccc2-c2nn[nH]n2)cc1 [losartan]
Effect on kidney NADPH oxidase activity in ACE2KO (in words) ([3]; ACE2KO mice, losartan 30 mg/kg/day): normalization of NADPH oxidase activity
Kidney cortex NADPH oxidase activity, percent of WT controls ([3]; losartan 10 mg/kg/day in drinking water, n = 4, vehicle WT 100 ± 20%, P < 0.05, vehicle ACE2KO 181 ± 24%, mean ± SEM, SEM): 201 ± 22%
Kidney cortex NADPH oxidase activity, percent of WT controls ([3]; losartan 30 mg/kg/day in drinking water, n = 5, vehicle WT 100 ± 18% (n = 10), P = 0.709, mean ± SEM, SEM): 83 ± 29%
